Test results reported in patent US12421257B2, “Compositions and methods for inhibiting group II intron RNA” (YALE UNIVERSITY, priority 2018, dated 2025).
In brackets after ≈: the same amount, converted by molar mass. Like-named read-outs stand apart in the source and are kept apart here. Blank lines part the entries; values can stand above or below the molecule they belong to.

Tests used:
HEK-293T cells = assay: Cytotoxicity in HEK-293T cells (Cell Titer Glo); format: cell-based, human; settings: for IC50: Homo sapiens
[1] = tested on: ai5γ group II intron (D135 ribozyme); assay: Fluorescent D135 ribozyme cleavage assay (IC50); format: biochemical, Saccharomyces cerevisiae; settings: for IC50: D135 ribozyme cleavage of substrate 17/2 DL, 100 mM MgCl2, 500 mM KCl, 37° C., 10 minutes; for In vitro inhibitory activity, SAR statement (in words): relative to parent scaffold
In short: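 D135 ribozyme (20 nM) with double-labeled substrate 17/2 DL (20 nM) in 50 mM MOPS pH 7.0, 100 mM MgCl2, 0.5 M KCl; 19 inhibitor concentrations, 5 nM–1 mM, 10 min at 37 °C, EDTA quench, fluorescence read. Triplicates fit to 4-parameter logistic for IC50; mean±s.e.m.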

S. cerevisiae = assay: Yeast respiration assay in S. cerevisiae (MIC in YPD / YPGE); format: cell-based, Saccharomyces cerevisiae; settings: Saccharomyces cerevisiae, 30° C.
Experimental: Yeast respiration assays were conducted either in liquid YPD media (BD Bacto Yeast Extract, BD Bacto Peptone, 2% glucose) or in YPGE media (BD Bacto Yeast Extract, BD Bacto Peptone, 3% glycerol, 3% ethanol), essentially as described for the antifungal MIC assays (see below). To initiate these experiments, 100 μl of a fresh stock solution was prepared for each compound (3.2 mg/ml for Amphotericin B and 12.8 mg/ml for each test compounds) in DMSO. This concentrated stock solution was placed in the first well of 12-well row on a 96-well plate. The subsequent nine wells in this row contained 50 μl of DMSO for serial dilution. From the first well, 50 μl of the compound stock was withdrawn, transferred to the second well and mixed. This process was repeated from the second and subsequent wells, resulting in a 1:2 serial dilution of the stock into DMSO. Wells 11 and 12 contained DMSO only, to be used as no compound control and sterility control, with no inoculum added, respectively. After preparing this plate, 2.5 μl from each of the 12 wells was transferred to the wells of a separate 96-well plate, each of which contained 122.5 μl of YPD or YPGE medium, resulting in a set of serial dilutions of compound into growth media in a volume of 125 μl. Then 50 μl from each of these dilutions were transferred onto a third 96-well plate (the assay plate) and mixed with an equal volume (50 μl) of freshly prepared yeast inoculum in YPD or YPGE medium set to provide 0.5×10^3 to 2.5×10^3 colony forming units per 1 mL (wells 1-11), or YPD/YPGE alone (sterility control, well 12). The final compound concentration range of the assay was 0.25-128 μg/ml for test compounds and 0.0625-32 μg/ml for Amphotericin B. The final concentration of DMSO was 1%. Plates were incubated at 30° C. and visually analyzed for turbidity after 24 and 48 hours of incubation. The lowest compound concentration at which no growth was apparent is reported as the MIC (Table 1). All experiments were performed in triplicate.

[2] = cytotoxicity, 24 hours with compound, read-out: IC50 HEK-293
[3] = YPD medium, read-out: MIC in YPD (glucose)
[4] = YPGE medium, read-out: MIC in YPGE (glycerol)
[5] = 72 hours growth in the presence of compounds, read-out: IC50 HEK-293T viability after 72-hour incubation

Structure (SMILES): O=C1/C(=C/c2cc(O)cc(O)c2)Oc2cc(O)cc(O)c21 [APY-014, (Z)-2-(3,5-Dihydroxybenzylidene)-4,6-dihydroxybenzofuran-3(2H)-one]
IC50 (HEK-293T cells; [2]): > 64 µg/mL | IC50 [1]: 266 ± 37 µM | In vitro inhibitory activity, SAR statement (in words) [1]: nearly complete loss of activity | MIC (S. cerevisiae; [3]): > 128 µg/mL | MIC (S. cerevisiae; [4]): > 128 µg/mL

Structure (SMILES): Cc1ccncc1-c1ccc2oc(C(=O)c3cc(O)c(O)c(O)c3)cc2c1 [APY-081, 5-{[5-(4-Methylpyridin-3-yl)-1-benzofuran-2-yl]carbonyl}benzene-1,2,3-triol]
IC50 (HEK-293T cells; [5]): 0.79 ± 0.09 µg/mL | IC50 (HEK-293T cells; [2]): > 128 µg/mL | IC50 [1]: 6.8 ± 1.1 µM | MIC (S. cerevisiae; [3]): > 128 µg/mL | MIC (S. cerevisiae; [4]): 32 µg/mL (≈ 88.6 µM)

Structure (SMILES): O=C(c1cc(O)c(O)c(O)c1)c1cc2cc(-c3ccc(CO)cc3)ccc2o1 [APY-084, 5-({5-[4-(Hydroxymethyl)phenyl]-1-benzofuran-2-yl}carbonyl)benzene-1,2,3-triol]
IC50 (HEK-293T cells; [5]): 1 ± 0.04 µg/mL | IC50 (HEK-293T cells; [2]): 1.1 ± 0.1 µg/mL | IC50 [1]: 0.9 ± 0.1 µM | MIC (S. cerevisiae; [3]): > 128 µg/mL | MIC (S. cerevisiae; [4]): 16 to 32 µg/mL (≈ 42.5 to 85 µM)

Structure (SMILES): CC(=O)c1ccc(-c2ccc3oc(C(=O)c4cc(O)c(O)c(O)c4)cc3c2)cc1 [APY-101, 1-(4-{2-[(3,4,5-Trihydroxyphenyl)carbonyl]-1-benzofuran-5-yl}phenyl)ethan-1-one]
Toxicity in human cells (in words) (HEK-293T cells; 24 hours incubation): did not show toxicity | IC50 (HEK-293T cells; [5]): 1.3 ± 0.1 µg/mL | IC50 (HEK-293T cells; [2]): > 128 µg/mL | IC50 [1]: 1.5 ± 0.1 µM | MIC (S. cerevisiae; [3]): > 128 µg/mL | MIC (S. cerevisiae; [4]): 32 µg/mL (≈ 82.4 µM)

Second part, led by results:

IC50 [1]: 2.1 ± 0.4 µM | MIC (S. cerevisiae; [3]): > 128 µg/mL | MIC (S. cerevisiae; [4]): 64 µg/mL
Structure (SMILES): Br.CCN(CC)Cc1ccc(-c2ccc3oc(C(=O)c4cc(O)c(O)c(O)c4)cc3c2)cc1 [APY-090, 5-[(5-{4-[(Diethylamino)methyl]phenyl}-1-benzofuran-2-yl)carbonyl]benzene-1,2,3-triol hydrobromide]
IC50 (HEK-293T cells; [2]): 1.7 ± 0.6 µg/mL

IC50 [1]: 86 ± 3 µM | MIC (S. cerevisiae; [3]): > 128 µg/mL | MIC (S. cerevisiae; [4]): > 128 µg/mL
Structure (SMILES): CCCCNS(=O)(=O)c1ccc(-c2ccc(-c3nc(-c4cc(O)c(O)c(O)c4)cs3)cc2)cc1 [APY-093, N-Butyl-4-{4-[4-(3,4,5-trihydroxyphenyl)-1,3-thiazol-2-yl]phenyl}benzene-1-sulfonamide]
IC50 (HEK-293T cells; [2]): 7.2 ± 1.5 µg/mL | In vitro inhibitory activity, SAR statement (in words) [1]: substantial loss of activity
